Measurements from ChEMBL document CHEMBL3393057, “Synthesis and transmembrane anion/cation symport activity of a rigid bis(choloyl) conjugate functionalized with guanidino groups” (Bioorg Med Chem Lett, 2015).

How the values were obtained:
[1] = Ionophoric activity across egg yolk L-alpha-phosphatidylcholine-based liposomal membrane vesicles (unknown origin) assessed as release of chloride ion at 5 mol% by electrode technique in presence of 500 mM NaCl; format: ADME; details: artificial membrane
[2] = Ionophoric activity across egg yolk L-alpha-phosphatidylcholine-based liposomal membrane vesicles (unknown origin) assessed as release of chloride ion at 5 mol% by electrode technique in presence of 500 mM CsCl; format: ADME; details: artificial membrane
[3] = Ionophoric activity across egg yolk L-alpha-phosphatidylcholine-based liposomal membrane vesicles (unknown origin) assessed as induction of pH discharge at internal pH 7 and external aqueous phase pH 8 at 3 mol% by pyranine dye-based method in presence of NaNO3; details: artificial membrane
[4] = Ionophoric activity across egg yolk L-alpha-phosphatidylcholine-based liposomal membrane vesicles (unknown origin) assessed as release of chloride ion after 300 seconds by electrode technique in presence of sodium nitrate in external solution; format: ADME; details: artificial membrane, 5 min
[5] = Ionophoric activity across egg yolk L-alpha-phosphatidylcholine-based liposomal membrane vesicles (unknown origin) assessed as induction of pH discharge at internal pH 7 and external aqueous phase pH 8 at 3 mol% by pyranine dye-based method in presence of NaI; details: artificial membrane
[6] = Ionophoric activity across egg yolk L-alpha-phosphatidylcholine-based liposomal membrane vesicles (unknown origin) assessed as release of chloride ion at 5 mol% by electrode technique in presence of 500 mM KCl; format: ADME; details: artificial membrane
[7] = Ionophoric activity across egg yolk L-alpha-phosphatidylcholine-based liposomal membrane vesicles (unknown origin) assessed as release of chloride ion at 5 mol% by electrode technique in presence of 500 mM RbCl; format: ADME; details: artificial membrane
[8] = Ionophoric activity across egg yolk L-alpha-phosphatidylcholine-based liposomal membrane vesicles (unknown origin) assessed as release of chloride ion after 300 seconds by electrode technique in presence of sodium sulfate in external solution; format: ADME; details: artificial membrane, 5 min
[9] = Ionophoric activity across egg yolk L-alpha-phosphatidylcholine-based liposomal membrane vesicles (unknown origin) assessed as release of chloride ion at 5 mol% by electrode technique in presence of 500 mM LiCl; format: ADME; details: artificial membrane
[10] = Ionophoric activity across egg yolk L-alpha-phosphatidylcholine-based liposomal membrane vesicles (unknown origin) assessed as induction of pH discharge at internal pH 7 and external aqueous phase pH 8 at 3 mol% by pyranine dye-based method in presence of NaCl; details: artificial membrane
[11] = Ionophoric activity across egg yolk L-alpha-phosphatidylcholine-based liposomal membrane vesicles (unknown origin) assessed as induction of pH discharge at internal pH 7 and external aqueous phase pH 8 at 3 mol% by pyranine dye-based method in presence of NaBr; details: artificial membrane

Activity [1]: Active | Activity [2]: Active | Activity [3]: Active | Activity [4]: Dose-dependent effect | Activity [5]: Active | Activity [6]: Active | Activity [7]: Active | Activity [8]: Active | Activity [9]: Active | Activity [10]: Active | Activity [11]: Active
SMILES: C[C@H](CCC(=O)NC(CCCNC(=N)N)C(=O)NCc1ccc(CNC(=O)C(CCCNC(=N)N)NC(=O)CC[C@@H](C)[C@@H]2CC[C@@H]3[C@@H]4[C@@H](C[C@@H](O)[C@]32C)[C@]2(C)CC[C@H](O)C[C@@H]2C[C@@H]4O)cc1)[C@H]1CC[C@H]2[C@@H]3[C@H](O)C[C@@H]4C[C@H](O)CC[C@]4(C)[C@H]3C[C@H](O)[C@]12C (stereo partly specified)
